Measurements reported in publication PMC6009976, “Pharmacophore-based design and discovery of (−)-meptazinol carbamates as dual modulators of cholinesterase and amyloidogenesis” (Journal of Enzyme Inhibition and Medicinal Chemistry, 2017).
Where two headings read alike, the source gives them in different places. Marks after values point to notes of the source that are not given here.

How the values were obtained:
[1] = test system: AChE from human erythrocytes; conditions: human erythrocyte AChE; read-out: IC50 ± SEM AChE; cited from earlier work
human serum BChE = conditions: read-out: IC50 ± SEM BChE; cited from earlier work
[2] = test system: APP in SH-SY5Y-APP695 cells; conditions: 50 µM; cited from earlier work
[3] = test system: Aβ40/Aβ42 in SH-SY5Y-APP695 cells; conditions: 50 µM; cited from earlier work
[4] = cited from earlier work
[5] = molecular target: T1, rHuAChE immobilized on EDA CIM disk (Homo sapiens, UniProt P22303); test: Carbamoylation and decarbamoylation rate constants on AChE immobilized disk; assay type: biochemical; conditions: for Kd: inhibitor 50 and 100 nM; for Carbamoylation half-time: inhibitor 50 nM
Experimental: The EDA CIM disk was first connected to a syringe pump and equilibrated with 10 column volumes (CV) of triple-distilled water and 10 CVs of 0.5 M Na-PB (pH 8.0). The flow rate was set at 0.5 mL/min. Then, the disk was activated by a 1% glutaraldehyde solution in PB (0.1 M, pH 7.4) (in the dark, 12 h, 4 °C). The activated disk was washed with 10 CVs of PB. 2 mL of rHuAChE in PB (10 U/mL) was then added into the column and left to react overnight (4 °C). The Schiff bases were reduced by 5 mL of 0.1 M sodium triacetoxyborohydride (STAB) in PB (2 h at room temperature) and 5 mL of 0.2 M monoethanolamine in PB (3 h at room temperature)[39]. The column was connected to the liquid chromatography system and equilibrated with a mobile phase consisting of 0.5 M NaCl and 10^−4 M DTNB in PB (buffer A) for 10 min. Reference enzyme activity was assessed by injecting 20 µL of saturating substrate (ATCh, 50 mM). The peak area was calculated and noted as A0. Then, the mobile phase was switched to the one containing selected concentrations of inhibitor (carbamoylation phase). Aliquots of 20 µL of saturating substrate were injected every 10–20 min and the time-dependent decreasing of peak area (Ai) was monitored down to a plateau. Once a constant plateau was reached, mobile phase was switched to buffer A again (decarbamoylation phase). Aliquots of substrate were kept injecting into the system to monitor the recovery of AChE activity over time. […] The experiment was carried out for two different concentrations of 42 and 43 (50 and 100 nM). The process of AChE carbamoylation and decarbamoylation is generally described as Scheme 1[40–42].
Calculation of ki and k3 was performed by applying Perola’s mathematical equation[43]. The affinity of the inhibitors toward the enzyme (KD) was calculated following Equation (1). (1) […]

[6] = molecular target: T1, rHuAChE immobilized on EDA CIM disk; conditions: cited from earlier work
[7] = molecular target: T2, AChE (mice brain homogenate) (Mus musculus, UniProt P21836); test: In vitro AChE inhibition assay (Ellman's method); assay type: biochemical; conditions: for Selectivity for AChE (IC50 for BChE divided by IC50 for AChE): mice serum BChE, (−)-meptazinol from values of ref 17
T2 construct: a solution of AChE (1:9 w/v homogenate in 0.1 M phosphate buffer (PB), pH 7.4); from tissue; host or cells: mouse brain homogenate
T2 sequence (P21836 32-614): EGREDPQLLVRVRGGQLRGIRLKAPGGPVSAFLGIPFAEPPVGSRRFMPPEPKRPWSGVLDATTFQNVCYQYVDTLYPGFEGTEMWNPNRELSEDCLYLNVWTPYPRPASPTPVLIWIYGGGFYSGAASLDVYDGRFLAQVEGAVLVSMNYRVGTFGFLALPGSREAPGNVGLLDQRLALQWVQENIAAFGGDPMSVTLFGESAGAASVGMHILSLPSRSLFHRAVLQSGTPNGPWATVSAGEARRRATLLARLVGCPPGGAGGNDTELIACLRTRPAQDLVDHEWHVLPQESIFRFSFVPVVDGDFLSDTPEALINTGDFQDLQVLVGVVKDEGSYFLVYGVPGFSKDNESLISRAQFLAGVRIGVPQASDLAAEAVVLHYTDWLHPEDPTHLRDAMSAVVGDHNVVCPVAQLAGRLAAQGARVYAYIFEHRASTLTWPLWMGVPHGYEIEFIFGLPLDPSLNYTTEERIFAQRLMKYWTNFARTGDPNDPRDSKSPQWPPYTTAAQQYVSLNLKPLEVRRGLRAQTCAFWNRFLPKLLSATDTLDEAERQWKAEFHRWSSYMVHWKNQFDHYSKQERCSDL
Experimental: (§1) Inhibitory activities of the compounds toward AChE and BChE were evaluated by Ellman’s method, employing mice brain homogenate as source of AChE and mice serum as source of BChE. […] After incubation for 20 min at 37 °C, Ellman’s reagent (300 µL, 5,5′-dithiobis(2-nitrobenzoic acid) (DTNB), 0.5 mM in 0.1 M PB, pH 7.4) and acetylthiocholine iodide (ATCh) (300 µL of 0.5 mM water solution) were added successively, and percent inhibition was determined by absorbance changes at 412 nm detected by UV spectrophotometry compared with control. BChE inhibition assay was similarly carried out using butyrylthiocholine iodide (BTCh) (0.5 mM) as the substrate and BChE (1:19 v/v serum in 0.1 M PB, pH 7.4) as the enzyme source.

BChE (mice serum) = molecular target: T3, BChE (mice serum) (Mus musculus, UniProt Q03311); test: In vitro BChE inhibition assay (Ellman's method); assay type: biochemical; conditions: read-out: IC50 ± SEM BChE
T3 construct: BChE (1:19 v/v serum in 0.1 M PB, pH 7.4) as the enzyme source; from tissue; host or cells: mouse serum
Experimental: as §1

rHuAChE = rHuAChE (Homo sapiens, UniProt P22303); test: Determination of the enzyme kinetic parameters Km and Vmax; assay type: biochemical; conditions: for Type of AChE inhibition: Lineweaver–Burk plots, decreased Vmax, unvaried Km
Experimental: 10 µL inhibitors of different concentrations and 50 µL rHuAChE enzyme solution of 0.5 U/mL were mixed and incubated for 20 min, then 75 µL of DTNB solution and 100 µL of ATCh solution (concentration ranging from 0.057 mM to 0.2 mM) were added to the mixture. Enzyme activity was determined right after ATCh was added by modified Ellman’s spectrophotometrical method. The Km and Vmax values for AChE inhibition were calculated by regression analysis of Lineweaver–Burk plots (1/velocity versus 1/[substrate]).

[8] = test system: APP in SH-SY5Y-APP695 cells; test: Quantification of APP by high content screening; assay type: cell-based, human; conditions: 16 h; for Reduction of intracellular APP level: 50 µM
Experimental: (§2) Human neuroblastoma SH-SY5Y cells transfected with wild-type APP695 gene (SH-SY5Y-APP695)[44] of 5 × 10^4/well (SH-SY5Y-APP695 kindly provided by Prof. Shengdi Chen, Ruijin Hospital, Shanghai Jiao Tong University School of Medicine) were plated in 200 µL culture medium (DMEM/F12, 10% Fetal Bovine Serum, 300 µg/mL G418, 100 U/mL penicillin + 100 µg/mL streptomycin) and incubated for 48 h at 37 °C in 5% CO2. Compounds 42 and 43 dissolved in culture medium were applied to the cells and incubated at 37 °C in 5% CO2 for 16 h. The cells were fixed and permeabilized. Mouse anti-APP monoclonal antibody N-terminus (MAB348, CHEMICON) and Goat anti-Mouse IgG conjugated to Alexa Fluor 555 were used as primary antibody and secondary antibody to detect APP while Hoechst Dye was used to stain nucleus simultaneously. KineticScan HCS System was employed to automatically find, focus, image, and analyze the cells on double-fluorescence channel guided by Target Activation Bioapplication. Fluorescence Unit of APP versus that of nucleus was used to evaluate the expression of APP, in order to balance the background.

[9] = test system: Aβ40/Aβ42 in SH-SY5Y-APP695 cells; test: Quantification of Aβ40/Aβ42 by ELISA in cell culture medium; assay type: cell-based, human; conditions: for Reduction of Aβ42 level / Level of Aβ40: 50 µM; for Level of Aβ40: data not shown
Experimental: as §2
The cell culture medium was collected and added with phenylmethylsulfonyl fluoride (PMSF) to the final concentration of 0.1%. The concentration of Aβ40/Aβ42 in the medium was measured by Human/Rat βAmyloid (40/42) ELISA Kit Wako and calculated according to the standard line.

in vivo = conditions: both, Kunming, mouse, in vivo
Experimental: (§3) Acute toxicity was evaluated in mice of both sexes (20–25 g Kunming mice from experimental animal center of Shanghai Jiao Tong University School of Medicine). All animals were housed in plastic cages with food and water ad libitum and maintained on a 12/12 h light/dark cycle at 22 ± 1 °C. […] Compounds 42 and 43 were dissolved in a 1:10 propylene glycol-normal saline mixture at 0.1 mol/L and then diluted to the final stepwise concentrations with normal saline. Each concentration of the compound was orally or intraperitoneally administered to a group of 10 animals. After two weeks of observation, the lethal rate for each group was measured. A 95% confidence interval for 42 or 43 after oral or intraperitoneal administration was calculated by Bliss method.

Kunming mice = test: in vivo; conditions: mice; as doses escalate
Experimental: as §3

mice brain AChE = conditions: training set, read-out: Experimental IC50; cited from earlier work
[10] = molecular target: T2, AChE (mice brain homogenate); conditions: cited from earlier work
[11] = reference compound to verify the disk
[12] = dissociation (decarbamoylation) constant, Mean ± SD, n = 6
[13] = inhibit (carbamoylation) constant, Mean ± SD, n = 6

T1 sequence (P22303 32-614): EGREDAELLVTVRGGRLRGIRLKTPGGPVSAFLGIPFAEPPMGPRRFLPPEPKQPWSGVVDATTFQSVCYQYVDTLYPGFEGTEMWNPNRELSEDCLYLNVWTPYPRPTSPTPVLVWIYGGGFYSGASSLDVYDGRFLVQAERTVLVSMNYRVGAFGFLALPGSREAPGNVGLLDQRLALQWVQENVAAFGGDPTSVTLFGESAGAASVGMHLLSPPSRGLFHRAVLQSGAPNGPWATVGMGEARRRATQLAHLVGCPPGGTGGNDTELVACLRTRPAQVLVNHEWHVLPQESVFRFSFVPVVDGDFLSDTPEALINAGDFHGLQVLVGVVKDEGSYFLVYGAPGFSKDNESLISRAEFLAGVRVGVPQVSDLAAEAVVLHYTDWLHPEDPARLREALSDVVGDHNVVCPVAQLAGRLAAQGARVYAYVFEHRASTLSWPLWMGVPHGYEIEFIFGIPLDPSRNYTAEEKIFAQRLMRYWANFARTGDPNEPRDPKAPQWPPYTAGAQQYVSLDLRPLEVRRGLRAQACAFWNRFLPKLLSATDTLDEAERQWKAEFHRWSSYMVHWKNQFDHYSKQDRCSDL
Chain of rHuAChE (P22303 32-614): as above
T3 sequence (Q03311 30-603): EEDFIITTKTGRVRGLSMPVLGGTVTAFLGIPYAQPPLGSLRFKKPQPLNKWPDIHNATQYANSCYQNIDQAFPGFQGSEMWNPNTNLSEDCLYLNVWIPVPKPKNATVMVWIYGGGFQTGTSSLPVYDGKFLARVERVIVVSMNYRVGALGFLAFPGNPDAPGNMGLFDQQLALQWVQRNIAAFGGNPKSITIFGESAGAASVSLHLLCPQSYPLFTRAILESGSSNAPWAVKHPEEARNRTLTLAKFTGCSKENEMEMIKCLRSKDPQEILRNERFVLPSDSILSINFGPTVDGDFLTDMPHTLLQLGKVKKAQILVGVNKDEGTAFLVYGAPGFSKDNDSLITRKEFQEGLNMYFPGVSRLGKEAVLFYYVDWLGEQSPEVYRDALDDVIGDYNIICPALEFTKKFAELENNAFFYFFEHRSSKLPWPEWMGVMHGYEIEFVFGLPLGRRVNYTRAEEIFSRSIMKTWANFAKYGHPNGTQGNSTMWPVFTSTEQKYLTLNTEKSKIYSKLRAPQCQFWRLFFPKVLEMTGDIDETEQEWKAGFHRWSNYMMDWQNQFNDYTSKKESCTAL

SMILES | LD50 ([4]; p.o.) | IC50 [7] [nM] | Fold increase in inhibition of mice brain AChE compared with (−)-meptazinol ([7]; mice brain AChE) | Selectivity for AChE (IC50 for BChE divided by IC50 for AChE) ([7]; mice brain AChE) | IC50 (BChE (mice serum)) [nM] | Type of AChE inhibition (rHuAChE) | Kd ([5]; Mean ± SD, n = 6) [nM] | k3 [5, 12] | ki [5, 13] | Carbamoylation half-time [5] [min] | Reduction of intracellular APP level [8] [%] | Reduction of Aβ42 level ([9]; 16 h) [%] | Level of Aβ40 [9] | LD50 (in vivo; ip) [mg/kg] | LD50 (in vivo; po) [mg/kg] | Peripheral cholinergic side effects observed (Kunming mice) | other results
CN1CC[C@@]2(C)c3cc(OC(=O)Nc4ccccc4)ccc3N(C)[C@@H]12 [Compound 5, Phenserine] | – | – | – | – | – | – | – | – | – | – | – | – | – | – | – | – | IC50 [1]: 24 ± 6 nM; IC50 (human serum BChE): 1300 ± 85 nM; Decrease of APP level [2]: 40%; Decrease of total Aβ [3]: 31%; LD50 ([4]; i.p.): 25 (i.p.)^i mg/kg
CNC(=O)Oc1ccc2c(c1)[C@]1(C)CCN(C)[C@@H]1N2C [Compound 1, (3aS)-(−)-physostigmine] | 4.5 (p.o.)^h mg/kg | – | – | – | – | – | – | – | – | – | – | – | – | – | – | – | k3 [5, 11]: (1.94 ± 0.36) × 10^−2 min^−1; ki [5, 11]: (4.78 ± 1.13) × 10^5 M^−1 min^−1; Carbamoylation half-time [6]: 3.9 min
CC[C@@]1(c2cccc(OC(=O)Nc3ccccc3)c2)CCCCN(C)C1 [Compound 43, (S)-3-(3-ethyl-1-methylazepan-3-yl)phenyl phenylcarbamate] | – | 31.6 ± 3.5 | 1300 | 2.1 | 67.1 ± 23.7 | uncompetitive inhibition | 108 | (2.18 ± 0.12) × 10^−2 min^−1 | (2.12 ± 0.46) × 10^5 M^−1min^−1 | 20.3 | 26.9 | 51.9 | unchanged | 45 | 73 | salivation, twitch, and incontinence | Times less potent than phenserine in AChE inhibition ([7]; against phenserine value of ref 22): 1.3; Decrease of Vmax (rHuAChE; inhibitor 25 nM): 10%; Vmax-app (rHuAChE; inhibitor 25 nM): 17.84 µM/min; Decrease of Vmax (rHuAChE; inhibitor 50 nM): 25%; Vmax-app (rHuAChE; inhibitor 50 nM): 14.94 µM/min; Decrease of APP level ([8]; 5 µM): 20.0%; Decrease of Aβ42 level ([9]; 5 µM, 16 h): 30.5%
CC[C@@]1(c2cccc(OC(=O)N(C)C)c2)CCCCN(C)C1 [Compound 42, (S)-3-(3-ethyl-1-methylazepan-3-yl)phenyl dimethylcarbamate] | – | 6.93 ± 2.45 | 5900 | 0.46 | 3.17 ± 1.34 | uncompetitive inhibition | 30.2 | (1.35 ± 0.31) × 10^−2 min^−1 | (4.47 ± 1.21) × 10^5 M^−1min^−1 | 23.5 | 23.5 | 34.0 | unchanged | 1.4 | 12 | salivation, twitch, and incontinence | AChE inhibitory potency relative to rivastigmine (times more potent) ([7]; mice brain AChE): about 790; Decrease of Vmax (rHuAChE; inhibitor 100 nM): 18%; Vmax-app (rHuAChE; inhibitor 100 nM): 28.73 µM/min; Decrease of Vmax (rHuAChE; inhibitor 250 nM): 29%; Vmax-app (rHuAChE; inhibitor 250 nM): 24.70 µM/min
CC[C@@]1(c2cccc(O)c2)CCCCN(C)C1 [(−)-Meptazinol] | – | – | – | 0.37 | – | – | – | – | – | – | – | – | – | – | – | – | IC50 [10]: 41 µM
